Assay results reported in US20260199426A1, “CYCLIC LIPOPEPTIDE ANTIBIOTIC COMPOUNDS FOR USE IN THE TREATMENT OF PROTEIN AGGREGATION DISEASE” (DEUTSCHES ZENTRUM FÜR NEURODEGENERATIVE ERKRANKUNGEN E. V., priority 2022, published 2026).
*1 amine or outer side, *2 acyl side, *3 side chain or, on linkers, in order; H or OH if unused. Where a SMILES comes first, the peptide text is derived from it. Bridges are numbered along the chain shown (N, C = ends). [ ]: non-standard residue; d: D form. The star is where a group is joined. ξ: configuration not given here. X2 = O=C(C(N[*:1])c1ccc(OC2OC(CO)C(O)C(O)C2OC2OC(CO)C(O)C(O)C2O)cc1)[*:2]; Octa(2Z,4E)dienoyl(7-Me) = CC(C)C/C=C/C=C\C(=O)*; ξPhg(3-Cl-4-OH) = NC(C(=O)O)c1ccc(O)c(Cl)c1; X1 = NC(=O)C(O[*:3])C(N[*:1])C(=O)[*:2]; Hpg = N[CH](C(=O)O)c1ccc(O)cc1; Orn = NCCC[CH](N)C(=O)O

How the values were obtained:
[1] = system: TGFBI peptide; experiment: TGFBI peptide aggregation assay (ThT, TEM); settings: compound/TGFBI mixture
[2] = system: tau neurofibrillary tangles; experiment: Formation of tau neurofibrillary tangles in mice; format: in vivo, mouse; settings: in feed from 3-4 weeks of age, approximately 9 months
[3] = target: T1, 2N4R Tau (Homo sapiens, UniProt P10636); experiment: Tau pelleting assay (SDS-PAGE of soluble fraction); settings: mole ratios 1:3 and 1:5
[4] = system: NM region of the Sup35 prion protein (HA-epitope tagged NM) in N2a cells; format: cell-based; settings: 500 nM NM fibrils, 24 h
[5] = target: T2, amylin (human islet amyloid polypeptide or hIAPP) (Homo sapiens, UniProt P10997); experiment: Amylin aggregation assay (ThT); format: biochemical; settings: 5 μM hIAPP monomers, various doses, 37° C.
T2 construct: 5 μM amylin (human islet amyloid polypeptide or hIAPP) monomers
T2 sequence (P10997 34-70 limits assumed): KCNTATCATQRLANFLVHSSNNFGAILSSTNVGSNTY

[6] = target: N-terminally acetylated alpha-synuclein (Asyn) (Homo sapiens, UniProt P37840); experiment: Seeded α-synuclein aggregation assay (ThT fluorescence, TEM); format: biochemical
Protocol: (§1) (A, B) Thioflavin-T (ThT) fluorescence curves of N-terminally acetylated alpha-synuclein (Asyn) in the absence (cross) and presence of a 3-fold excess (white circles) of compound. […] Quantitative analysis of Asyn aggregation kinetics was performed by nonlinear regression with sigmoidal fitting to determine the midpoint value (Tm) of the fluorescence curve as well as the fluorescence span. Unpaired two-tailed t-test was performed to test the null hypothesis (p≤0.0332(*), p≤0.002(**), p≤0.0002 (***), p≤0.0001 (****)). […] (C) TEM imaging analysis of the compound/Asyn mixtures. Scale bars correspond to 200 nm.
as §1, with “ThT” for “Thioflavin-T (ThT)”, “circles or triangles)” for “circles)”
(A) ThT fluorescence curves of N-terminally acetylated alpha-synuclein (Asyn) in the absence (cross) and presence of a 3-fold excess (white circles) of compound. […] Quantitative analysis of Asyn aggregation kinetics was performed by nonlinear regression with sigmoidal fitting to determine the midpoint value (Tm) of the fluorescence curve as well as the fluorescence span.
Asyn protein stock solutions were prepared in 50 mM HEPES at pH 7.4 with 100 mM NaCl. Stocks of compounds were prepared in the same buffer (500 μM) or as 10 mM compound in DMSO. […] The microplate was likewise subjected to the incubation and fluorescence measurement program used in in vitro assay 1. After about 2-4 days of incubation, ThT fluorescence emission reached the maximal value and the Asyn fibril-containing mixture was collected as “fibril seed” mixture for subsequent Asyn aggregation experiments.

[7] = system: Tau-induced degeneration of Drosophila eyes (GMR-Gal4/WT Tau); experiment: Drosophila neurodegeneration model (Tau-induced eye degeneration); settings: oral in food from larvae stage to adult stage; 15, 30, and 44 μM
[8] = system: Tau aggregation in HEK biosensor cells (TauRD^LM-GFP)
[9] = target: T1, 2N4R Tau; experiment: Seeded Tau aggregation assay (ThT fluorescence, TEM of the fibrils formed); settings: Tau:Ramoplanin A2 mole ratios 1:3 and 1:5; lower Tm = faster aggregation
[10] = system: spread of tau aggregates between nerve cells in PS19 mice; experiment: Spreading of tau aggregates after intracerebral injection of tau fibrils in PS19 mice; format: in vivo, mouse; settings: in food from two months of age; tau fibril injection four weeks after start
[11] = system: NM region of the Sup35 prion protein (NM-GFP) in HEK cells; format: cell-based, human
[12] = target: monomeric 2N4R Tau (Homo sapiens, UniProt P10636); experiment: 1D 1H-NMR titration of Ramoplanin A2 with unlabeled 2N4R Tau (binding epitopes); settings: 200 μM Ramoplanin A2 : 30 μM Tau, 37° C.
[13] = target: monomeric Tau (2N4R) (Homo sapiens, UniProt P10636)
[14] = target: pre-formed 2N4R Tau fibrils (Homo sapiens, UniProt P10636); experiment: Tau fibril dissolution assay (pre-formed fibrils, ThT span, TEM); settings: mole ratios 1:0.3 and 1:1
[15] = system: 22 L scrapie prion infection of fibroblast cell clone L929 15.9 (PrP^Sc); format: cell-based

Sequence of monomeric Tau (2N4R) (P10636 1-441 isoform P10636-8): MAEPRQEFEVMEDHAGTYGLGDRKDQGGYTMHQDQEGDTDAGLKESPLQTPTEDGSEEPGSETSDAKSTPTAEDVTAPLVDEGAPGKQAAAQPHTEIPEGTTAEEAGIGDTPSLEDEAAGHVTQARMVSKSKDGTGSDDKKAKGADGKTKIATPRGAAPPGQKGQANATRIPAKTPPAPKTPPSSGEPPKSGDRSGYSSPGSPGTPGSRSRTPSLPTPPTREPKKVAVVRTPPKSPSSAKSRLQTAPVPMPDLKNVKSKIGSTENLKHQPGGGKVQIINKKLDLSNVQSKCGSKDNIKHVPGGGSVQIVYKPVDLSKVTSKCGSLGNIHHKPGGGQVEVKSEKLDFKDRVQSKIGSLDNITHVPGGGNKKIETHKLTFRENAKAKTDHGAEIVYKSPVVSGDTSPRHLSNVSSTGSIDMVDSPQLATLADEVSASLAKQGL
T1 sequence (P10636 1-441 isoform P10636-8): as above
Sequence of monomeric 2N4R Tau (P10636 1-441 isoform P10636-8): as above
Sequence of pre-formed 2N4R Tau fibrils (P10636 1-441 isoform P10636-8): as above

Compound: CC(C)C/C=C/C=C\C(=O)NC(CC(N)=O)C(=O)NC1C(=O)NC(c2ccc(O)cc2)C(=O)NC(CCCN)C(=O)NC(C(C)O)C(=O)NC(c2ccc(O)cc2)C(=O)NC(c2ccc(O)cc2)C(=O)NC(C(C)O)C(=O)NC(Cc2ccccc2)C(=O)NC(CCCN)C(=O)NC(c2ccc(OC3OC(CO)C(O)C(O)C3OC3OC(CO)C(O)C(O)C3O)cc2)C(=O)NC(C(C)O)C(=O)NC(c2ccc(O)cc2)C(=O)NCC(=O)NC(CC(C)C)C(=O)NC(C)C(=O)NC(c2ccc(O)c(Cl)c2)C(=O)OC1C(N)=O (stereo not shown) [Ramoplanin A2] ({Octa(2Z,4E)dienoyl(7-Me)}-N[X1][Hpg][Orn]T[Hpg][Hpg]TF[Orn][X2]T[Hpg]GLA[ξPhg(3-Cl-4-OH)]; ester 2-C; configuration not given here)
- TGFBI fibril morphology (TEM) [1]: shorter fibrils
- formation of tau neurofibrillary tangles [2]: inhibits the formation of tau neurofibrillary tangles
- amount of soluble Tau (SDS-PAGE) [3]: increased
- percent of cells with aggregates of the prion protein [4]: reduced with increasing concentration
- in vitro aggregation of amylin (final ThT fluorescence, t=50 h) [5]: inhibit the in vitro aggregation of amylin
- in vitro aggregation of alpha-synuclein (ThT fluorescence) ([6]; 3-fold excess of compound, 25 μM Asyn monomers, 1% (v/v) fibril seeds, 37° C.): inhibit the in vitro aggregation
- Asyn fibril morphology (TEM) ([6]; compound/Asyn mixtures): shorter fibrils
- percent degeneration of Drosophila eyes [7]: lowers the percent degeneration of Drosophila eyes
- Tau aggregate formation ([8]; induced by Tau^P301L fibrils, 0.25 μM to 40 μM, 48 hours, with or without lipofectamine): decreased aggregate formation
- aggregation of Tau ([8]; induced by brain homogenate of PS19 mice, 0.25 μM to 26.5 μM, 24 hours, lipofectamine): inhibits the aggregation of Tau in HEK biosensor cells
- inhibition of seeded Tau aggregation ([8]; induced by cell lysate containing Tau aggregates, 0.25 μM to 40 μM, 22 h, lipofectamine): showed inhibition of seeded Tau aggregation
- inhibition of seeded Tau aggregation, comparison among the tested compounds ([8]; induced by cell lysate, 0.25 μM to 40 μM, 22 h, lipofectamine): strongest dose-dependent inhibition of seeded Tau aggregation
- midpoint values (Tm) of the fluorescence curves [9]: accelerates Tau fibrillization
- spread of tau aggregates between nerve cells and formation of new tau fibrils [10]: hinders the spread of tau aggregates between nerve cells and the formation of new tau fibrils
- percent of cells with aggregates of the prion protein [11]: reduced with increasing concentration
- involvement of the peptide backbone of Ramoplanin A2 in binding (proton CSPs) [12]: involved in binding to monomeric Tau
- binding to monomeric Tau (CSPs above ~0.0025 ppm with signal broadening I/I0<1) ([13]; 18 μM 15N Tau, mole ratios 1:0.3 to 1:30): binding of Ramoplanin A2 to specific regions/residues in the monomeric form of Tau
- conformational state of Tau (chemical shift dispersion along 1H dimension) ([13]; 10-fold excess of Ramoplanin A2): Tau remains disordered
- dissolution of Tau fibrils [14]: not dissolved
- pathogenic prion protein PrP^Sc (proteinase K resistant, Western blot) [15]: reduction
- total PrP (Western blot) ([15]; 3 μM, 9 d): reduction
- prion infection in cellular model ([15]; 3 μM, 9 d, 1% 22 L scrapie brain homogenate): prevents prion infection in cellular model
